US20020152479A1, “Car modulators: screening and treatment of hypercholesterolemia” (priority 2000, published 2002)
Where two headings read alike, the source gives them in different places. Each block holds one molecule with its values, some of them ahead of it. Where no end group is shown, it is not given here. rhodamine = not defined here

Key:
[1] = biological target: T1, GST-CARα ligand binding domain fusion protein (Homo sapiens, UniProt Q14994); experiment: Peptide sensor fluorescence polarization assay, GST-CARα ligand binding domain with rhodamine-[…] (SRC-1 peptide)
T1 construct: made in house; host or cells: E. coli
T1 sequence (Q14994 76-348 isoform Q14994-2): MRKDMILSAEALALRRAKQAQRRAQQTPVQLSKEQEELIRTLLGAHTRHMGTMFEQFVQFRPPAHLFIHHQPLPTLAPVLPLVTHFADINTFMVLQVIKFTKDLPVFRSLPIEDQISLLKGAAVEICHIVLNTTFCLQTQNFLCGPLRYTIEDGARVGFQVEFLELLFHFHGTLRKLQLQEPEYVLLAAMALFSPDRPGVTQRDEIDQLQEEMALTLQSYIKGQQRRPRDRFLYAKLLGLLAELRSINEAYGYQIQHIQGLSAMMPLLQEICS
Experimental: (§1) A portion of DNA encoding the ligand binding domain of CARα encoding amino acids 76 to 348 (GenBank Accession No. CAA83016) was subcloned into a glutathione S-transferase (GST) fusion protein expression vector (pGEX-2TK, Amersham-Pharmacia) to create a vector that encodes a fusion protein in which GST is fused to the amino terminus of the CAR ligand binding domain. The GST-CAR protein was expressed in E. coli and purified over a glutathione affinity column. The GST-CAR fusion protein was incubated with a rhodamine-labeled peptide derived from the receptor binding domain of the coactivator SRC-1, rhodamine-[…] (SEQ ID NO: 7) (see WO 99/27365). The fluorescence polarization was measured as described in WO 99/27365.
(§2) Using the compounds set out in Table 1, a peptide sensor assay was carried out using the method of Example 3. Fusion proteins encoding the ligand binding domain of CARα (GST-CARα; see Example 3) and CARβ (GST-CARβ) were used in the assay. A portion of the DNA for the ligand binding domain of CARβ (GenBank Accession No. AF009327) encoding amino acids 86 to 358 was subcloned into a glutathione S-transferase (GST) fusion protein expression vector (pGEX-2TK, Amersham-Pharmacia) to create a vector that encodes a fusion protein in which GST is fused to the amino terminus of the CARβ ligand binding domain (GST-CARβ). The GST-CARβ was purified using glutathione affinity chromatography.
(§3) The notation ND means not determined.

CAR = experiment: RARE-luciferase reporter gene assay in CV-1 cells with increasing CAR expression plasmid (Example 4); assay type: cell-based; settings: 10 μM compound, 24 h
CARβ = biological target: T2, CARβ (Mus musculus, UniProt O35627); assay type: cell-based
T2 construct: expressed in transfected cells; host or cells: CV-1 cells
T2 sequence (O35627 1-358): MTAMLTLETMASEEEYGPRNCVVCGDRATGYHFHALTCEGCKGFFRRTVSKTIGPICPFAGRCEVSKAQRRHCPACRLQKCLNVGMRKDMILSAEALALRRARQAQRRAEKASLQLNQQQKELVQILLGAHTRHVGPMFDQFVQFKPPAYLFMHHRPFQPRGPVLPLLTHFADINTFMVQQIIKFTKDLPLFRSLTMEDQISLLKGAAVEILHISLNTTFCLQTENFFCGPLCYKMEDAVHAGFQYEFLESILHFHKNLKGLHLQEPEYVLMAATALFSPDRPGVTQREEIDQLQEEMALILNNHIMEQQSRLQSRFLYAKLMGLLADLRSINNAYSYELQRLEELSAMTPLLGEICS

[2] = biological target: T3, GST-CARβ ligand binding domain fusion protein (Mus musculus, UniProt O35627); experiment: Peptide sensor fluorescence polarization assay, GST-CARβ ligand binding domain; settings: half-maximal concentration of stimulation of peptide sensor assay signal
T3 construct: encoding amino acids 86 to 358 was subcloned; made in house
T3 sequence (O35627 86-358): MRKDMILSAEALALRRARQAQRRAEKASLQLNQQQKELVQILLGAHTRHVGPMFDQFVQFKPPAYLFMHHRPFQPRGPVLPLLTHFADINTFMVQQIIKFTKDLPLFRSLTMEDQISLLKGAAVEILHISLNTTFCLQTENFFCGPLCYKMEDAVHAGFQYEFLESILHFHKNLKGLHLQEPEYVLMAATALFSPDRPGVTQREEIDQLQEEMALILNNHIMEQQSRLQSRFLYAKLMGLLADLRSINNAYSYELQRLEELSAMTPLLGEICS
Experimental: as §1, §2, §3

CARα = biological target: T4, CARα (Homo sapiens, UniProt Q14994); assay type: cell-based
T4 construct: expressed in transfected cells; host or cells: CV-1 cells
T4 sequence (Q14994 1-348 isoform Q14994-2): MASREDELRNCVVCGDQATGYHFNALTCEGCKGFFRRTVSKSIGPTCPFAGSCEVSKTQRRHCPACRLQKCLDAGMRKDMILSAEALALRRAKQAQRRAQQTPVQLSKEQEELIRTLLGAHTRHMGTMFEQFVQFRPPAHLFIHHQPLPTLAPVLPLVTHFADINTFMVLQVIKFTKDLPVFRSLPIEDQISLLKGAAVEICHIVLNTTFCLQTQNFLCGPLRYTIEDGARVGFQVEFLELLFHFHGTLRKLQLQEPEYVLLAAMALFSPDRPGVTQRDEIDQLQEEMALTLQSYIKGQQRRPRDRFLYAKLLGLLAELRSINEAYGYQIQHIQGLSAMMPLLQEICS

CYP2B = settings: mouse, in vivo, ip, cited from earlier work
[3] = Lipoprotein particle composition (LDL/VLDL) by electrophoresis of plasma, wild-type and CAR knockout mice; assay type: in vivo; settings: single i.p. 3 mg/kg, four days after dosing
[4] = Plasma cholesterol, HDL cholesterol and triglycerides in wild-type C57B1/6 mice; assay type: in vivo; settings: single i.p. 3 mg/kg, four days after dosing
mouse CAR = biological target: T5, mouse CAR (Mus musculus, UniProt O35627); settings: Tzameli et al. (2000); read-out: EC50, upregulation of CAR-mediated transcription; cited from earlier work
T5 sequence (O35627 1-358): T2 sequence (O35627 1-358)

[5] = Total plasma cholesterol after TCPOBOP in CAR wild-type, heterozygous and knockout mice; assay type: in vivo; settings: single i.p. 3 mg/kg, four days after dosing
[6] = biological target: GST-CARβ ligand binding domain fusion protein (mouse, UniProt P08515 1-218 = GST; O35627 86-358); experiment: fluorescence polarization peptide sensor assay, with small-molecule agonists
[7] = half-maximal concentration of stimulation of peptide sensor assay signal, read-out: GST-CARα EC50

- IC50 ([1]; in the presence of 5 μM 5β-pregnan-3,20-dione, read-out: IC50, decrease of fluorescence polarization seen with 5β-pregnan-3,20-dione): 530 nM
Molecule: C[C@]12CC[C@@H](O)C[C@@H]1CC[C@@H]1[C@@H]2CC[C@]2(C)C=CC[C@@H]12 [5α-androst-16-en-3α-ol]

Molecule: C[C@@]12CCC[C@H]1[C@@H]1CC[C@H]3C[C@H](O)CC[C@]3(C)[C@H]1CC2 [5α-androstane-3α-ol]
- Transcription of the luciferase reporter gene (normalized luciferase activity) (CAR): decreased

Molecule: CC(=O)[C@H]1CC[C@H]2[C@@H]3CC[C@@H]4CC(=O)CC[C@]4(C)[C@H]3CC[C@]12C [5β-pregnan-3,20-dione]
- EC50 [1]: 2500 nM
- Fluorescence polarization between sensor peptide and GST-CAR [1]: increased
- Transcription of the luciferase reporter gene (normalized luciferase activity) (CAR): increased transcription

Molecule: CCOC(=O)C(Nc1ccc(OCc2ccccc2)cc1)c1ccccc1 (centres unmarked) [Compound T0037566]
- EC50 [1, 7]: 221 nM
- CMV-CARβ, fold increase in normalized luciferase activity over DMSO control (CARβ): 2.14
- EC50 [2]: 99.1 nM
- CMV-CARα, fold increase in normalized luciferase activity over DMSO control (CARα): 1.96

Molecule: COc1ccc(C2CC(c3ccc(Cl)cc3)=NN2c2ccccc2Cl)c(OC)c1 (centres unmarked) [Compound T0318784]
- EC50 [1, 7]: 91.2 nM
- CMV-CARβ, fold increase in normalized luciferase activity over DMSO control (CARβ): 3.87
- EC50 [2]: 96.7 nM
- CMV-CARα, fold increase in normalized luciferase activity over DMSO control (CARα): 1.78

Molecule: Clc1ccc(CSCc2cc(Sc3c(Cl)cccc3Cl)nc(-c3ccccn3)n2)cc1 [Compound T0434523]
- EC50 [1, 7]: 79.7 nM
- CMV-CARβ, fold increase in normalized luciferase activity over DMSO control (CARβ): 1.29
- EC50 [2]: 52.2 nM
- CMV-CARα, fold increase in normalized luciferase activity over DMSO control (CARα): 2.17

Molecule: CCN(CC)c1ccc(C2C3=C(CC(C)(C)CC3=O)OC3=C2C(=O)CC(C)(C)C3)c(OCc2ccc(Cl)cc2Cl)c1 [Compound T0438248]
- EC50 [1, 7]: 5.25 nM
- CMV-CARβ, fold increase in normalized luciferase activity over DMSO control (CARβ): 0.96
- EC50 [2]: 65.4 nM
- CMV-CARα, fold increase in normalized luciferase activity over DMSO control (CARα): 2.92

Molecule: Clc1cnc(Oc2ccc(Oc3ncc(Cl)cc3Cl)cc2)c(Cl)c1 [TCPOBOP, 1,4-bis[2-(3,5-dichloropyridyloxy)]benzene]
- Duration of CYP2B expression induction (CYP2B; 3 mg/kg): over 20 weeks
- Dose inducing half maximal expression of CYP2B (CYP2B): 0.066 mg/kg
- Plasma levels of LDL/VLDL, CAR deficient (knockout) mice [3]: unaffected
- Plasma levels of LDL/VLDL, wild-type mice [3]: significant reduction
- Reduction in HDL [4]: 40%
- Reduction in total plasma cholesterol [4]: 40%
- Reduction in triglyceride levels [4]: 15-30%
- EC50 [2]: 60 nM
- EC50 (mouse CAR): 20 nM
- Plasma cholesterol levels, CAR knockout mice [5]: no effect
- Reduction in total cholesterol, female heterozygous CAR mice (+/−) [5]: 60%
- Total plasma cholesterol, mice with one functional CAR gene (+/−) [5]: decreased total plasma cholesterol
- Total plasma cholesterol, wild-type littermates (+/+) [5]: decreased total plasma cholesterol

- binding result [6]: binds
B1: rhodamine-ILRKLLQE (rhodamine-labeled peptide derived from the receptor binding domain of the coactivator SRC-1) (peptide)
peptide: rhodamine-ILRKLLQE
modifications: reading uncertain; also: printed as rhodamine-ILRKLLQE
notes: Labeled 8-mer used as the fluorescence polarization sensor; also called sensor peptide
